Reference: paper PMC6389950, “Small Peptide Ligands for Targeting EGFR in Triple Negative Breast Cancer Cells” (Scientific Reports, 2019)
One block for each molecule: values may come before it. Where a SMILES comes first, the peptide text is derived from it. The star is where a group is joined. FITC = O=C1OC2(c3ccc(O)cc3Oc3cc(O)ccc32)c2ccc(NC(=S)*)cc21; βAla = NCCC(=O)O

Legend:
MDA-MB-436 [1] = assay: In vitro cellular uptake of FITC-labeled peptides by FACS; type: cell-based; details: soluble FITC-β-alanine-labeled peptide 1 µM, 30 min, 37 °C, FBS free media, 10^5 or 10^6 cells/well, MFI of FITC positive cells, three independent experiments ± SD
Source text: (§1) Flow cytometry was employed to determine the cellular uptake of selected six peptides (1, 4, 22, 23, 26, and 27). As opposed to the membrane bound (conjugated) peptide in library screening, the peptides used here were soluble (or free) FITC-labeled peptides. Peptides were labeled with FITC in the N-terminal and a β-alanine residue was used as a spacer between the FITC and the peptide sequence. The same three TNBC cells lines (MDA-MB-468, MDA-MB-231 and MDA-MB-436) used for peptide array screening were used here as well. Peptides 1 and 4 were used as controls. […] Peptide 4 was included in this experiment to compare the uptake of this keratin 1 binding peptide with the EGFR binding peptides. Peptides 22, 23, 26, and 27 were identified as the best EGFR binding peptides from the library screening.
(§2) Fluorescence-activated cell-sorting (FACS) analysis was used to check the uptake of the FITC-peptides. The stock solution for the FITC-peptides (100 μM) was prepared by dissolving the peptides in sterile water/10% DMSO. MDA-MB-231, MDA-MB-468 and MDA-MB-436 cells were seeded in 6-well plates with 10^6/10^5 cells/well containing 3 mL media and the plates were incubated at 37 °C overnight. The following day, the media was replaced with fresh FBS free media (1 mL) containing FITC-labeled peptide (1 µM), and further incubated at 37 °C for 30 min. Thereafter the media was removed and the cells were washed with cold PBS to remove any remaining peptide. Adequate trypsin was added to each well followed by 3–5 min incubation at 37 °C. Trypsin was immediately neutralized by adding media and the cell suspension was transferred into centrifuge tubes. The cells were separated and washed twice with FACS sheath fluid. The control cells were treated similarly but without peptide. Two wells were assigned for each peptide and each well sample was read twice in FACS machine. The experiment was repeated once. MFI represents the average of all wells for each peptide.

MDA-MB-468 [2] = assay: as above; type: cell-based; details: 30 min, 37 °C; for Mean Fluorescence Intensity ± SD MDA-MB-468: soluble FITC-β-alanine-labeled peptide 1 µM, FBS free media, 10^5 or 10^6 cells/well, MFI of FITC positive cells, three independent experiments ± SD
Source text: as §1, §2

MDA-MB-231 [3] = assay: as above; type: cell-based; details: 30 min, 37 °C; for Mean Fluorescence Intensity ± SD MDA-MB-231: soluble FITC-β-alanine-labeled peptide 1 µM, FBS free media, 10^5 or 10^6 cells/well, MFI of FITC positive cells, three independent experiments ± SD
Source text: as §1, §2

MDA-MB-436 [4] = assay: Peptide array-whole cell binding assay; type: cell-based; details: peptide conjugated to cellulose membrane (amino-PEG500), no free C-terminus; cells 75 × 10^3 cells/mL, 37 °C, 4 h; CyQUANT fluorescence relative to peptide 1; spots in duplicate
Source text: (§3) Peptide array on the cellulose membrane was used to evaluate the binding of each peptide to different cell lines. The amino functionalized cellulose membrane provided by Intavis is acid hardened providing high stability at pH range from 1–14, permitting its use in acidic or basic conditions while maintaining membrane integrity. The PEG linker on membrane surface functions as a hydrophilic spacer between the peptide and the solid surface (membrane) reducing background signal. Cell lines were carefully selected for screening peptides as our goal here is to screen peptides with high binding/uptake by the TNBC cells. […] EGFR is overexpressed by a number of TNBC cells such as MDA-MB-468 (obtained from primary tumor source) and MDA-MB-231 (from metastasis cancer tissue)[13],[14]. While other TNBC cells like MDA-MB-436 (obtained from metastasis cancer tissue) are known to express low levels of EGFR. Non-tumorigenic epithelial MCF10A and MCF12A cells derived from the breast tissue also express low levels of EGFR[14],[34]. We selected two TNBC cell lines with relatively high expression of EGFR expression (MDA-MB-468/231) and a TNBC cell line with low level of EGFR expression (MDA-MB-436) for the peptide array screening experiments. In addition, non- tumorigenic cell line, MCF-10A was used for comparison. These four cell lines were allowed to bind the membrane by seeding the cells on the membrane and the bound cells were labeled with a fluorescent dye CyQUANT.
(§4) For the binding assay, the peptide array was incubated with the cells in sequential steps as described previously. Briefly peptide array membrane was dipped in ethanol for 30 s to remove any precipitation on it, followed by dipping in sterile PBS (pH 7.4) for another 30 min. The cells (75 × 10^3 cells/mL) were seeded directly on the membrane in a sterile plate and incubated at 37 °C for 4 h. The unbound cells were washed out with sterile PBS (pH 7.4). Thereafter the membrane was placed in a sealed bag and transferred to −80 °C freezer for 2 h. Subsequently it was defrosted at room temperature and treated with CyQUANT solution. The CyQUANT concentration was optimized based on the manufacturer’s protocol and preliminary experiments. Membrane was incubated at 37 °C for 30 min with the dye. After washing with sterile PBS and air drying using blow dryer, the membrane was scanned using Bio-rad chemidoc imager with image lab software. The settings were adjusted based on the excitation (465 nm) and emission (535 nm) wavelengths of CyQUANT dye. Epi Blue was selected for the light source (455–485 nm) and filter number 4 (blue filter, 518–546 nm) was employed. The fluorescence intensity of cancer cells read using chemidoc imager was normalized using the non-cancer cell fluorescence intensity. Eventually relative fluorescence was assessed to select peptides with high affinity to cancer cells and low or minimal binding to normal cells.

MCF-10A = assay: Peptide array-whole cell binding assay; type: cell-based; details: non-tumorigenic cells; peptide conjugated to cellulose membrane (amino-PEG500); cells 75 × 10^3 cells/mL, 37 °C, 4 h; CyQUANT fluorescence relative to peptide 1; spots in duplicate
Source text: as §3, §4

MDA-MB-468 [5] = assay: Peptide array-whole cell binding assay; type: cell-based; details: peptide conjugated to cellulose membrane (amino-PEG500), no free C-terminus; cells 75 × 10^3 cells/mL, 37 °C, 4 h; CyQUANT fluorescence relative to peptide 1; spots in duplicate
Source text: as §3, §4

MDA-MB-231 [6] = assay: Peptide array-whole cell binding assay; type: cell-based; details: peptide conjugated to cellulose membrane (amino-PEG500), no free C-terminus; cells 75 × 10^3 cells/mL, 37 °C, 4 h; CyQUANT fluorescence relative to peptide 1; spots in duplicate
Source text: as §3, §4

[7] = Peptide stability in human serum; type: in vitro ADME; details: preliminary results, data not shown
EGFR on MDA-MB-231 cells = molecular target: T1, EGFR on MDA-MB-231 cells (Homo sapiens, UniProt P00533); assay: Competitive uptake by FACS with excess EGF protein or unlabeled peptide 1; type: cell-based; details: MDA-MB-231 cells (10^5), FITC-peptide 1 μM, 30 min
T1 construct: host or cells: MDA-MB-231
Procedure: The specific uptake of peptides 1 and 22 was evaluated using a competitive assay. First, MDA-MB-231 cells were incubated with peptide FITC-1 in the presence and absence of excess EGF protein (20-fold). […] The competition experiment was also repeated with peptide 22 in the presence and absence of EGF protein.
In addition, MDA-MB-231 cells (10^5) were incubated with varying concentration of peptide FITC-22 (0–6 μM). The resulting samples were treated as above, and the experiment was repeated. The fluorescence intensity of the FITC peptide-cell complex was plotted against peptide concentration. […] Control group was treated with media alone containing ~5% DMSO. Each group was done in duplicate and the experiment was repeated once.

breast cancer cells = details: compared to linear peptide 18–4; cited from earlier work
Source text: (§5) We found a region in EGF that may have structural similarity to peptide 22 (Fig. 4b). There is low sequence homology between the two sequences (peptide 22 and 12-residue region of EGF), however, based on the pr ...

[8] = cited from earlier work
Source text: as §5

[9] = molecular target: T2, epidermal growth factor receptor (EGFR or ErbB1) (human (endogenous in MDA-MB-468, …, UniProt P00533 25-1210)); assay: flow cytometry on cells; competition: MDA-MB-231 cells (10^5); EGF (20 µM, 20-fold excess) or unlabeled peptide 1 (100 µM, 100-fold excess) added first, then FITC-labelled peptide 1 or 22 (1 µM), 30 min; details: one partner purified
T2 construct: epidermal growth factor receptor, endogenous on human breast cell lines; expression levels are cited, not measured here; no isolated EGFR was used

[10] = soluble FITC-labeled peptide 1 µM

Stability in the presence of human serum (in words) [7]: short half-life
FITC positive cells, no competitor (EGFR on MDA-MB-231 cells; rounded value): 99%
Decrease in fluorescence / FITC positive cells in the presence of 20-fold excess EGF protein (EGFR on MDA-MB-231 cells; EGF 20 μM): 97%
FITC positive cells in the presence of 20-fold excess EGF protein (EGFR on MDA-MB-231 cells; EGF 20 μM, rounded value): 2%
Molecule: CC[C@H](C)[C@H](NC(=O)[C@@H](NC(=O)[C@H](CC(N)=O)NC(=O)[C@H](CCC(=O)O)NC(=O)[C@@H]1CCCN1C(=O)[C@@H](NC(=O)[C@H](Cc1ccc(O)cc1)NC(=O)CNC(=O)[C@H](Cc1ccc(O)cc1)NC(=O)[C@H](Cc1c[nH]c2ccccc12)NC(=O)[C@H](Cc1c[nH]cn1)NC(=O)[C@@H](N)Cc1ccc(O)cc1)[C@@H](C)O)C(C)C)C(=O)O [Peptide 22] (H-YHWYGYTPENVI-OH)
Mean Fluorescence Intensity ± SD MDA-MB-436 (MDA-MB-436 [1]): 41 ± 27
Uptake compared to peptide 1, MDA-MB-468 (MDA-MB-468 [2]; [10]): 123 fold
Mean Fluorescence Intensity ± SD MDA-MB-468 (MDA-MB-468 [2]): 8384 ± 735
Uptake compared to peptide 1, MDA-MB-231 (MDA-MB-231 [3]; [10]): 47 fold
Mean Fluorescence Intensity ± SD MDA-MB-231 (MDA-MB-231 [3]): 1978 ± 522
Relative Cell Adhesion MDA-MB-436 (MDA-MB-436 [4]): 1.3
Relative Cell Adhesion MCF-10A (MCF-10A): 1.2
Relative Cell Adhesion MDA-MB-468 (MDA-MB-468 [5]): 1.6
Relative Cell Adhesion MDA-MB-231 (MDA-MB-231 [6]): 2.6

Decrease in fluorescence in the presence of 100-fold excess unlabeled peptide 1 (EGFR on MDA-MB-231 cells; unlabeled peptide 1 100 μM): 19.5%
Molecule: FITC-AβYHWYGYTPQNVI [FITC-1, reference compound]

Molecule: Peptide 1: previously reported EGFR targeting dodecapeptide GE11 (YHWYGYTPQNVI), lead peptide [reference compound]
Mean Fluorescence Intensity ± SD MDA-MB-436 (MDA-MB-436 [1]): 105 ± 11
Mean Fluorescence Intensity ± SD MDA-MB-468 (MDA-MB-468 [2]): 68 ± 45
Mean Fluorescence Intensity ± SD MDA-MB-231 (MDA-MB-231 [3]): 42 ± 8
Stability in the presence of human serum (in words) [7]: short half-life

Molecule: cyclic WXEAAYQkFL (head to tail) [N- to C terminal cyclized analogue of breast cancer targeting peptide 18–4, k is D-lysine]
Uptake by the breast cancer cells compared to the linear peptide (in words) (breast cancer cells): higher uptake
Stability toward proteolytic degradation (in words) [8]: stable toward proteolytic degradation

percent FITC positive cells, with 20-fold excess EGF [9]: 2%
B1: FITC-labeled soluble peptide 22 (peptide)
peptide: {FITC-βAla}-YHWYGYTPENVI-OH
notes: GE11 analogue, Q9E; also called peptide FITC-22; FITC-22; source: synthetic peptide (Fmoc-SPPS, RP-HPLC purified)
